Measured values as given in patent publication US10273257B2, “Cancer cell-containing composition” (KING FAHD UNIVERSITY OF PETROLEUM AND MINERALS, priority 2016, dated 2019).
Several values for one entry are separate records, joined by “and”; a condition that tells them apart may be missing. Equal entries are not always repeated.

Test system: MDA-MB231 cells
Assay: MTT assay for anticancer activity, MDA-MB231 cells
Format: cell-based, human
Details: MDA-MB231 breast cancer cells, 3-day exposure protocol
Method: (§1) Human breast cancer cells (MDA-MB231, MCF-7) were grown in Dulbecco's modified Eagle's medium (DMEM) supplemented with 10% fetal bovine serum (FBS) and 1% penicillin (10,000 units) with streptomycin (10 mg) in a 74 cm^2 flask and incubated until 80% confluence was obtained in a humidified environment of 5% CO2-95% air at 37° C.
(§2) Cancer cells were seeded and maintained in quadruplicate in a 96-well tissue culture plate at 5×10^3 cells per well in 150 μl of the same medium. The cancer cells were incubated for 24 hours before the treatment. All compounds were dissolved in 50% DMSO. Therefore, DMSO was used as a negative control. Complexes 1-5 and cisplatin (positive control) at 0.01 μM, 0.05 μM, 0.1 μM, 1 μM, 5 μM, 10 μM, and 50 μM concentrations were prepared in DMEM. The final DMSO concentration, in each well, was less than 0.1%.
(§3) The cancer cells were treated with the synthesized compounds 1-5 and cisplatin and then incubated for […]. The medium from the wells was discarded and 100 μL of DMEM containing MTT (3-(4,5-dimethylthiazol-2-yl)-2,5-diphenyltetrazolium bromide) (5 mg/mL) was added to the wells. The cells were incubated in a CO2 incubator at 37° C. in the dark for 4 h. After incubation, a purple colored formazan (an artificial chromogenic dye, a product of the reduction of water […] tetrazolium salts, such as MTT, by dehydrogenases and reductases) was produced by the cells and appeared as dark crystals in the bottom of the wells. The medium from each well was discarded carefully to avoid disruption of the monolayer. 100 μL of isopropanol was added in each well. The solution was thoroughly mixed in the wells to dissolve the formazan crystals which ultimately results into a purple solution. The absorbance of the 96-well plate was taken at 570 nm with Mithras^2LB943 against a blank (e.g. unreduced MTT in isopropanol). All data presented are mean t standard deviation.
(§4) The in vitro cytotoxic effect of mixed ligand gold(I) complexes 1-5 against MDA-MB231 and MCF-7 were studied using the MTT assay. The in vitro cytotoxic activity depends on the exposure time and the concentrations of the complexes. For that reason, different concentrations of the complexes and a 3-day exposure protocol to determine the IC50 values for all five complexes and cisplatin were used.

Compared with `N.N.[Cl][Pt][Cl]` [Cisplatin, reference compound], `CCN(CC)C(=S)[S][Au-][P+](C)(C)C` [Complex 3, (Me)3PAu(S2CN{Et}2)] is 600-fold lower in IC50: 25.8 µM for the first, 0.043 µM for the second.

Going from `CN(C)C(=S)[S][Au-][P+](C)(C)C` [Complex 1, (Me)3PAu(S2CN{Me}2)] to `CC(C)[P+]([Au-][S]C(=S)N(C)C)(C(C)C)C(C)C` [Complex 5, (i-Pr)3PAu(S2CN{Me}2)], the IC50 rises from 0.044 µM to 0.7 µM (16-fold). The first is the more potent here.

`CC[P+](CC)(CC)[Au-][S]C(=S)N(C)C` [Complex 2, (Et)3PAu(S2CN{Me}2)] and `CCN(CC)C(=S)[S][Au-][P+](CC)(CC)CC` [Complex 4, (Et)3PAu(S2CN{Et}2)] are within 1.5-fold of each other in IC50: 0.055 µM for the first, 0.044 µM for the second.

Test system: MCF-7 cells
Assay: MTT assay for anticancer activity, MCF-7 cells
Format: cell-based, human
Details: MCF-7 breast cancer cells, 3-day exposure protocol
Method: as §1, §2, §3, §4

`N.N.[Cl][Pt][Cl]` [Cisplatin, reference compound] and `CCN(CC)C(=S)[S][Au-][P+](C)(C)C` [Complex 3, (Me)3PAu(S2CN{Et}2)] are within 1.5-fold of each other in IC50: 0.0059 µM for the first, 0.0088 µM for the second.

`CN(C)C(=S)[S][Au-][P+](C)(C)C` [Complex 1, (Me)3PAu(S2CN{Me}2)] and `CC[P+](CC)(CC)[Au-][S]C(=S)N(C)C` [Complex 2, (Et)3PAu(S2CN{Me}2)] are within 1.5-fold of each other in IC50: 0.0078 µM for the first, 0.0064 µM for the second.

For `CCN(CC)C(=S)[S][Au-][P+](CC)(CC)CC` [Complex 4, (Et)3PAu(S2CN{Et}2)], the IC50 was 0.0053 µM.

In the case of `CC(C)[P+]([Au-][S]C(=S)N(C)C)(C(C)C)C(C)C` [Complex 5, (i-Pr)3PAu(S2CN{Me}2)], the IC50 is reported as 0.0078 µM and 0.0079 µM.

Test system: CT-DNA
Assay: Fluorescence emission titration with CT-DNA (Scatchard)
Format: binding, calf
Details: complex 1.3×10^−4 M, excitation 275 nm, Tris-HCl/NaCl buffer, mean standard deviations ±0.07
Method: Fluorescence experiments were carried out at a constant concentration of the complexes with increasing CT-DNA concentrations. The binding constant, K, of the gold(I) complexes was determined from Scatchard eqs. (2) and (3) by employing emission titration (Liu, D. G.; Liao, P. J.; Fang, Z. Y.; Huang, S. S.; Sheng, L. G.; Yu, Q. R. Interaction of bis(ethylene)tin(bis(salicylidene)ethylenediamine) with DNA. Anal. Sci. 2002, 18 391-395; and Healy, F. E. Quantitative determination of DNA-ligand binding using fluorescence spectroscopy. J. Chem. Educ. 2007, 84, 1304-1307, each incorporated herein by reference in their entirety). CF=CT(I/Io−P)(1−P) (2) r/CF=K(n−r) (3) where CF is the free probe (i.e. free metal complex) concentration, CT is the total concentration of the probe added, I and Io are fluorescence intensities in the presence and absence of CT-DNA, respectively, r denotes a ratio of CB (CB=CT−CF) to the DNA concentration, i.e., the bound probe concentration to the DNA concentration, K is the binding constant, “n” is the binding site number, and P is the ratio of the observed fluorescence quantum yield of the bound probe to that of the free probe. The value P was obtained as the intercept by extrapolating from a plot of I/Io vs. 1/[DNA].
The fluorescence emission titration of complexes 1-5 was carried out in order to understand the nature of binding mode of these complexes with CT-DNA. This method is highly sensitive, reproducible, and accurate. In the absence of CT-DNA, all complexes 1-5 (concentration=1.3×10^−4 M) emitted strong luminescence when excited at 275 nm in Tris-HCl/NaCl buffer with an emission maximum appearing at 340 nm. However, the subsequent addition of CT-DNA from 0.067-0.5×10^−4 M caused a gradual enhancement in the fluorescence intensity of the complexes with no apparent change in the shape and position of the emission bands (FIGS. 10A-10E), which is indicative of a strong interaction of the Au(I) drug entities with CT DNA. The hydrophobic molecular structure of CT DNA could be responsible for enhancing the fluorescence quantum yield of complexes, leading to the higher fluorescence intensity with increasing concentration of CT DNA. In addition, energy transfer from CT-DNA to metal complexes could also induce fluorescence enhancement (Arjmand, F.; Jamsheera, A.; Afzal, M.; S. Tabassum, S. Enantiomeric Specificity of Biologically Significant Cu(II) and Zn(II) Chromone Complexes Towards DNA. Chirality. 2012, 24, 977-986, Tabassum, S.; Yadav, S.; Arjmand, F. Synthesis and mechanistic insight of glycosylated Cu^II/Ni^II—Sn2^IV heterobimetallic DNA binding agents: Validation of a specific Cu^II—Sn2^IV chemotherapeutic agent for human leukemic cell line K-562. J. Organomet. Chem. 2013, 745-746, 226-234, incorporated herein by reference in its entirety).

Going from `CN(C)C(=S)[S][Au-][P+](C)(C)C` [Complex 1, (Me)3PAu(S2CN{Me}2)] to `CCN(CC)C(=S)[S][Au-][P+](C)(C)C` [Complex 3, (Me)3PAu(S2CN{Et}2)], the “Scatchard binding constant K” value rises from 28000 M⁻¹ to 57000 M⁻¹ (2-fold).

Going from `CC[P+](CC)(CC)[Au-][S]C(=S)N(C)C` [Complex 2, (Et)3PAu(S2CN{Me}2)] to `CCN(CC)C(=S)[S][Au-][P+](CC)(CC)CC` [Complex 4, (Et)3PAu(S2CN{Et}2)], the “Scatchard binding constant K” value rises from 35000 M⁻¹ to 66000 M⁻¹ (1.9-fold).

In the case of `CC(C)[P+]([Au-][S]C(=S)N(C)C)(C(C)C)C(C)C` [Complex 5, (i-Pr)3PAu(S2CN{Me}2)], the “Scatchard binding constant K” value is reported as 19000 M⁻¹.

Test system: EB-DNA system (CT DNA treated with EB)
Assay: Ethidium bromide displacement fluorescence quenching (Stern-Volmer)
Format: binding, calf
Details: EB-bound CT DNA, emission at 585-590 nm
Method: Luminescence titrations involving quenching experiments were conducted by adding increasing concentration of the complexes to a fixed concentration of EB-DNA system. The Tris-HCl buffer was used as a blank to make preliminary adjustments. The Stern-Volmer quenching constant, Ksv was obtained from the following equation (Lakowiez, R. J.; Webber, G. Quenching of fluorescence by oxygen. Probe for structural fluctuations in macromolecules. Biochem. 1973, 12, 4161-4170, incorporated herein by reference in its entirety). I0/I=1+KSV·r (4) where r is the ratio of total concentration of complex to that of DNA, and Io and I are the fluorescence intensities of EB in the absence and presence of complex.
A reliable method for studying the binding of molecules to nucleic acids is the fluorescence quenching method. Ethidium bromide (EB) is a planar cationic dye which is widely used as a sensitive fluorescence probe for native DNA. EB emits intense fluorescent light in the presence of DNA due to its strong intercalation between the adjacent DNA base pairs. The displacement technique is based on the decrease of fluorescence resulting from the displacement of EB from a DNA sequence by a quencher, and the quenching is due to the reduction of the number of binding sites on the DNA that are available to the EB (Ramachandran. E.; Raja, S. D.; Bhuvanesh, P. S. N.; Natarajan, K. Mixed ligand palladium(II) complexes of 6-methoxy-2-oxo-1,2-dihydroquinoline-3-carbaldehyde 4N-substituted thiosemicarbazones with triphenylphosphine co-ligand: Synthesis, crystal structure and biological properties. Dalton Trans. 2012, 41 13308-13323, incorporated herein by reference in its entirety). […] From the above data, it is clear that 4 replaces EB more effectively than other complexes, and this observation agreed with the results obtained from electronic absorption studies.

Compared with `CN(C)C(=S)[S][Au-][P+](C)(C)C` [Complex 1, (Me)3PAu(S2CN{Me}2)], `CCN(CC)C(=S)[S][Au-][P+](C)(C)C` [Complex 3, (Me)3PAu(S2CN{Et}2)] is higher in “Stern-Volmer quenching constant KSV” value: 0.19 for the first, 0.67 for the second.

Going from `CC[P+](CC)(CC)[Au-][S]C(=S)N(C)C` [Complex 2, (Et)3PAu(S2CN{Me}2)] to `CCN(CC)C(=S)[S][Au-][P+](CC)(CC)CC` [Complex 4, (Et)3PAu(S2CN{Et}2)], the “Stern-Volmer quenching constant KSV” value rises from 0.34 to 0.91.

For `CC(C)[P+]([Au-][S]C(=S)N(C)C)(C(C)C)C(C)C` [Complex 5, (i-Pr)3PAu(S2CN{Me}2)], the “Stern-Volmer quenching constant KSV” value was 0.10.
